Measurements from ChEMBL document CHEMBL1154020, “Tricyclic indole and dihydroindole derivatives as new inhibitors of soluble guanylate cyclase” (Bioorg Med Chem Lett, 2009).
Active and inactive are the calls of the source. The calls are words filed in the database; no cut-off is given here.

Columns and labels:
[1] = organism: Rattus norvegicus; assay: Inhibition of soluble guanylate cyclase in rat aortic smooth muscle cells assessed as decrease in SNP-induced cGMP production at 1 uM pretreated 30 min before SNP challenge by enzyme immunoassay
[2] = organism: Rattus norvegicus; assay: Inhibition of soluble guanylate cyclase in rat aortic smooth muscle cells assessed as decrease in SNP-induced cGMP production at 100 uM pretreated 30 min before SNP challenge by enzyme immunoassay
[3] = organism: Rattus norvegicus; assay: Inhibition of soluble guanylate cyclase in rat aortic smooth muscle cells assessed as decrease in cGMP production at 100 uM after 30 mins by enzyme immunoassay
[4] = organism: Rattus norvegicus; assay: Inhibition of particulate guanylate cyclase in rat aortic smooth muscle cells assessed as decrease in ANF-induced cGMP production at 100 uM pretreated 30 min before ANF challenge by enzyme immunoassay
[5] = organism: Rattus norvegicus; assay: Inhibition of soluble guanylate cyclase in rat aortic smooth muscle cells assessed as decrease in SNP-induced cGMP production pretreated 30 min before SNP challenge by enzyme immunoassay

SMILES | Activity [1] | Activity [2] | Activity [3] | Activity [4] | Activity [5]
CCOCn1ccc2c1CCc1cnoc1-2 | inactive | Active | – | – | –
CCOCn1ccc2c1CCc1cnn(C)c1-2 | Active | Active | – | – | –
CCOCn1ccc2c3oncc3ccc21 | – | – | inactive | inactive | Dose-dependent effect
CCOCn1ccc2c1CCc1cnn(-c3ccccc3)c1-2 | – | Active | – | – | –
